Measured values: the supplement of paper PMC10307832

Key:
Test in all cases: relative viability (nuclei count vs DMSO), 5 days (fraction); higher = more cells survive
[1] = tested on: NCI-H650
Method in brief: (§1)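 Values are medians from duplicate plates. Each reflects relative viability, defined as the nuclei count of treated wells over that of vehicle wells. Lung cancer cell lines in 1536-well plates were pin-tool dosed one day after seeding with one drug alone or with a fixed anchor-drug dose plus five library-drug doses (not always all listed) in √10 steps, then fixed, stained and imaged at 4× after 5 days.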

[2] = tested on: NCI-H1437
Method in brief: as §1

[3] = tested on: NCI-H2405
Method in brief: as §1

[4] = tested on: NCI-H647
Method in brief: as §1

[5] = tested on: NCI-H2023
Method in brief: as §1

[6] = tested on: NCI-H460
Method in brief: as §1

[7] = tested on: NCI-H2126
Method in brief: as §1

[8] = tested on: EPLC-272H
Method in brief: as §1

[9] = tested on: HOP-62
Method in brief: as §1

[10] = tested on: NCI-H441
Method in brief: as §1

[11] = tested on: NCI-H2170
Method in brief: as §1

[12] = tested on: SW 1573
Method in brief: as §1

[13] = tested on: NCI-H2347
Method in brief: as §1

[14] = tested on: LOU-NH91
Method in brief: as §1

[15] = tested on: ChaGo-K-1
Method in brief: as §1

[16] = tested on: NCI-H2009
Method in brief: as §1

[17] = tested on: NCI-H520
Method in brief: as §1

[18] = tested on: EMC-BAC-2
Method in brief: as §1

[19] = tested on: HCC-44
Method in brief: as §1

[20] = tested on: NCI-H727
Method in brief: as §1

[21] = tested on: LCLC-103H
Method in brief: as §1

[22] = tested on: PC-14
Method in brief: as §1

[23] = tested on: NCI-H23
Method in brief: as §1

Q: How did the relative viability ([1]; first compound 0.08 µM) turn out when `CCCCCCCCCCCC1=C(O)C(=O)C=C(O)C1=O` [Embelin] + C[C@@H](Oc1cc(-c2cnn(C3CCNCC3)c2)cnc1N)c1c(Cl)ccc(F)c1Cl [Crizotinib] (partner 1 µM) was run?
A: 0.772

Q: What about the relative viability ([1]; first compound 0.8 µM) of the same compound?
A: 0.817

Q: What about the relative viability ([1]; first compound 2.53 µM) of the same compound?
A: 0.711

Q: What about the relative viability ([1]; first compound 8 µM) of the same compound?
A: 0.782

Q: And the relative viability ([2]; first compound 0.08 µM)?
A: 0.988

Q: And the relative viability ([2]; first compound 0.8 µM)?
A: 0.898

Q: What about the relative viability ([2]; first compound 2.53 µM) of the same compound?
A: 1.01

Q: What about the relative viability ([2]; first compound 8 µM) of the same compound?
A: 0.452

Q: And the relative viability ([3]; first compound 0.08 µM)?
A: 0.908

Q: What about the relative viability ([3]; first compound 0.8 µM) of the same compound?
A: 0.976

Q: What about the relative viability ([3]; first compound 2.53 µM) of the same compound?
A: 0.892

Q: And the relative viability ([3]; first compound 8 µM)?
A: 0.955

Q: And the relative viability ([4]; first compound 0.08 µM)?
A: 1.44

Q: And the relative viability ([4]; first compound 0.8 µM)?
A: 1.08

Q: And the relative viability ([4]; first compound 2.53 µM)?
A: 1.48

Q: What about the relative viability ([4]; first compound 8 µM) of the same compound?
A: 1.17

Q: What about the relative viability ([5]; first compound 0.08 µM) of the same compound?
A: 0.654

Q: And the relative viability ([5]; first compound 0.8 µM)?
A: 0.638

Q: And the relative viability ([5]; first compound 2.53 µM)?
A: 0.801

Q: What about the relative viability ([5]; first compound 8 µM) of the same compound?
A: 0.609

Q: What about the relative viability ([6]; first compound 0.08 µM) of the same compound?
A: 0.818

Q: What about the relative viability ([6]; first compound 0.8 µM) of the same compound?
A: 1.04

Q: What about the relative viability ([6]; first compound 2.53 µM) of the same compound?
A: 1.02

Q: And the relative viability ([6]; first compound 8 µM)?
A: 0.876

Q: And the relative viability ([7]; first compound 0.08 µM)?
A: 1.04

Q: What about the relative viability ([7]; first compound 0.8 µM) of the same compound?
A: 1.05

Q: And the relative viability ([7]; first compound 2.53 µM)?
A: 1.19

Q: What about the relative viability ([7]; first compound 8 µM) of the same compound?
A: 1.04

Q: What about the relative viability ([8]; first compound 0.08 µM) of the same compound?
A: 0.802

Q: What about the relative viability ([8]; first compound 0.8 µM) of the same compound?
A: 1.08

Q: And the relative viability ([8]; first compound 2.53 µM)?
A: 1.4

Q: And the relative viability ([8]; first compound 8 µM)?
A: 0.765

Q: And the relative viability ([9]; first compound 0.08 µM)?
A: 0.957

Q: And the relative viability ([9]; first compound 0.8 µM)?
A: 0.926

Q: What about the relative viability ([9]; first compound 2.53 µM) of the same compound?
A: 0.857

Q: And the relative viability ([9]; first compound 8 µM)?
A: 0.82

Q: What about the relative viability ([10]; first compound 0.08 µM) of the same compound?
A: 0.749

Q: And the relative viability ([10]; first compound 0.8 µM)?
A: 0.971

Q: And the relative viability ([10]; first compound 2.53 µM)?
A: 0.788

Q: And the relative viability ([10]; first compound 8 µM)?
A: 0.901

Q: What about the relative viability ([11]; first compound 0.08 µM) of the same compound?
A: 1.22

Q: And the relative viability ([11]; first compound 0.8 µM)?
A: 1.18

Q: What about the relative viability ([11]; first compound 2.53 µM) of the same compound?
A: 1.4

Q: What about the relative viability ([11]; first compound 8 µM) of the same compound?
A: 1.36

Q: What about the relative viability ([12]; first compound 0.08 µM) of the same compound?
A: 0.808

Q: What about the relative viability ([12]; first compound 0.8 µM) of the same compound?
A: 0.977

Q: What about the relative viability ([12]; first compound 2.53 µM) of the same compound?
A: 0.84

Q: What about the relative viability ([12]; first compound 8 µM) of the same compound?
A: 0.887

Q: What about the relative viability ([13]; first compound 0.08 µM) of the same compound?
A: 0.784

Q: And the relative viability ([13]; first compound 0.8 µM)?
A: 0.868

Q: And the relative viability ([13]; first compound 2.53 µM)?
A: 0.778

Q: And the relative viability ([13]; first compound 8 µM)?
A: 0.622

Q: And the relative viability ([14]; first compound 0.08 µM)?
A: 0.764

Q: What about the relative viability ([14]; first compound 0.8 µM) of the same compound?
A: 0.751

Q: And the relative viability ([14]; first compound 2.53 µM)?
A: 0.763

Q: What about the relative viability ([14]; first compound 8 µM) of the same compound?
A: 0.741

Q: And the relative viability ([15]; first compound 0.08 µM)?
A: 1.13

Q: And the relative viability ([15]; first compound 0.8 µM)?
A: 1.22

Q: And the relative viability ([15]; first compound 2.53 µM)?
A: 1.32

Q: And the relative viability ([15]; first compound 8 µM)?
A: 1.24

Q: And the relative viability ([16]; first compound 0.08 µM)?
A: 1.04

Q: What about the relative viability ([16]; first compound 0.8 µM) of the same compound?
A: 1.12

Q: What about the relative viability ([16]; first compound 2.53 µM) of the same compound?
A: 1.11

Q: And the relative viability ([16]; first compound 8 µM)?
A: 1.06

Q: What about the relative viability ([17]; first compound 0.08 µM) of the same compound?
A: 0.894

Q: What about the relative viability ([17]; first compound 0.8 µM) of the same compound?
A: 1

Q: What about the relative viability ([17]; first compound 2.53 µM) of the same compound?
A: 1.07

Q: What about the relative viability ([17]; first compound 8 µM) of the same compound?
A: 0.782

Q: And the relative viability ([18]; first compound 0.08 µM)?
A: 0.747

Q: What about the relative viability ([18]; first compound 0.8 µM) of the same compound?
A: 0.831

Q: And the relative viability ([18]; first compound 2.53 µM)?
A: 0.87

Q: And the relative viability ([18]; first compound 8 µM)?
A: 0.764

Q: What about the relative viability ([19]; first compound 0.08 µM) of the same compound?
A: 0.771

Q: And the relative viability ([19]; first compound 0.8 µM)?
A: 0.803

Q: And the relative viability ([19]; first compound 2.53 µM)?
A: 0.826

Q: And the relative viability ([19]; first compound 8 µM)?
A: 0.829

Q: And the relative viability ([20]; first compound 0.08 µM)?
A: 0.938

Q: What about the relative viability ([20]; first compound 0.8 µM) of the same compound?
A: 0.924

Q: What about the relative viability ([20]; first compound 2.53 µM) of the same compound?
A: 1.06

Q: And the relative viability ([20]; first compound 8 µM)?
A: 0.898

Q: And the relative viability ([21]; first compound 0.08 µM)?
A: 1.06

Q: And the relative viability ([21]; first compound 0.8 µM)?
A: 1.01

Q: And the relative viability ([21]; first compound 2.53 µM)?
A: 1.08

Q: And the relative viability ([21]; first compound 8 µM)?
A: 0.959

Q: What about the relative viability ([22]; first compound 0.08 µM) of the same compound?
A: 0.916

Q: What about the relative viability ([22]; first compound 0.8 µM) of the same compound?
A: 0.845

Q: And the relative viability ([22]; first compound 2.53 µM)?
A: 0.921

Q: What about the relative viability ([22]; first compound 8 µM) of the same compound?
A: 0.891

Q: What about the relative viability ([23]; first compound 0.08 µM) of the same compound?
A: 0.554

Q: What about the relative viability ([23]; first compound 0.8 µM) of the same compound?
A: 0.56

Q: What about the relative viability ([23]; first compound 2.53 µM) of the same compound?
A: 0.55

Q: And the relative viability ([23]; first compound 8 µM)?
A: 0.705
